Experimental data published in patent publication US6221870A, “Ergoline derivatives and their use as somatostatin receptor antagonists” (Novartis AG, priority 1997, dated 2001).

What was measured:
[1] = biological target: T1, native rat sst1 receptors (Rattus norvegicus, UniProt P28646); assay: affinity for native rat sst1 receptors (radioligand binding); settings: read-out: pIC50, affinity for native rat sst1 receptors (converted)
T1 construct: native rat sst1 receptors
From the text: (§1) In particular the agents of the invention bind to somatostatin receptors. More particularly they are selective antagonists at Somatostatin sst1 receptors, previously called SSTR-1 receptors (see Hoyer et al., TIPS, 1995, 16; 86-88), as determined in radioligand binding and second messenger studies [see for example K Kaupmann et al., FEBS LETTERS 1993, 331: 53-59].
(§2) For all above indications the preferred compound is the compound of example 1 below.

[2] = biological target: T2, native human sst1 receptors (Homo sapiens, UniProt P30872); assay: affinity for native human sst1 receptors (radioligand binding); settings: read-out: pIC50, affinity for native human sst1 receptors (converted)
T2 construct: native and recombinant human sst1 receptors
T2 sequence (P30872 whole entry): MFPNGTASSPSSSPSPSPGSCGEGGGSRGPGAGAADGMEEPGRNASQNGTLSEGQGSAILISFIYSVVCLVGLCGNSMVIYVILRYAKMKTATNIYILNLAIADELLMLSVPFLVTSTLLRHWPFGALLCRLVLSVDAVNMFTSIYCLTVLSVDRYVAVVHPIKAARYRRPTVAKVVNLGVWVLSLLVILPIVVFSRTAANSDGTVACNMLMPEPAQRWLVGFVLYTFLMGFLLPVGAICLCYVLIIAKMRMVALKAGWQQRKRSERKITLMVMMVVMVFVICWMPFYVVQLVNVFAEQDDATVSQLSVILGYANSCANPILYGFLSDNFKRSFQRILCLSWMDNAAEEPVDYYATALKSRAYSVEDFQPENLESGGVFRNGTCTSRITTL
From the text: as §1, §2

[3] = biological target: T3, recombinant human sst1 receptors (Homo sapiens, UniProt P30872); assay: affinity for recombinant human sst1 receptors (radioligand binding); settings: read-out: pIC50, affinity for recombinant human sst1 receptors (converted)
T3 construct: expressed in transfected cells
T3 sequence (P30872 whole entry): as above
From the text: as §1, §2

[4] = test system: neurotransmitter receptors; assay: activity for a wide range of neurotransmitter receptors; assay type: binding
From the text: as §2

intruder mouse = intruder mouse test; assay type: in vivo; settings: for potency compared with the compound of example 1, intruder mouse test: standard drugs at 3-30 mg/kg s.c.
mice = assay: Matched Pairs Situation test in mice; assay type: in vivo, mouse; settings: for lowering of aggressive behavior (Matched Pairs Situation test), standard drugs: 3-30 mg/kg s.c.; for potency compared with the compound of example 1, Matched Pairs Situation test: standard drugs at 3-30 mg/kg s.c.
[5] = known drawback; cited from earlier work

T1 sequence (P28646 whole entry): as the sequence (P30872 whole entry) above, with S8P, S11T, P16S, S20G, G25V, G26C, A32S, A45S, T385A, T389S counted along it

| Compound | IC50 [1] [nM] | IC50 [2] [nM] | IC50 [3] [nM] | activity for a wide range of neurotransmitter receptors [4] | social withdrawal in the intruder mouse test (intruder mouse; 3-30 mg/kg p.o.) | aggressive behavior in the Matched Pairs Situation test (mice; 3-30 mg/kg p.o.) | potency compared with the compound of example 1, intruder mouse test (intruder mouse) | lowering of aggressive behavior (Matched Pairs Situation test), standard drugs (mice) | potency compared with the compound of example 1, Matched Pairs Situation test (mice) | therapeutic window [5] |
| --- | --- | --- | --- | --- | --- | --- | --- | --- | --- | --- |
| CN1C[C@H](C(=O)N2CCN(c3cccc(=O)n3C)CC2)C[C@@H]2c3cccc4[nH]c(Br)c(c34)C[C@H]21 [Example 1, [5R, 8R, 10R]-2-Bromo-9,10-dihydro-lysergic-acid-4-(1-methyl-1H-pyrid-6-on-2-yl)-piperazine-amide] | 0.2 | 1 | 1.58 | without significant activity | reverses social withdrawal | clearly lowers aggressive behavior |  |  |  |  |
| NC(=O)N1c2ccccc2C=Cc2ccccc21 [carbamazepine] |  |  |  |  |  |  | less potent | These effects are also observed | less potent | narrow therapeutic window |
| lithium |  |  |  |  |  |  | less potent | These effects are also observed | less potent | narrow therapeutic window |
